Assays:
[1] = tested on: chinook salmon; assay: Deactivation with potassium permanganate, mortality of chinook salmon; assay type: in vivo, O. tschawytscha
[2] = tested on: stickleback; assay: Control of stickleback in 24-hour applications, usable concentration; assay type: in vivo; conditions: for recommended safe and effective concentration: river water tests
Excerpt: For field applications the concentration of the dichloro- and tetrachloro-compounds would vary with water quality--mainly with regard to water temperature and hydrogen ion concentrations. Generally, treated areas would contain water low in dissolved solids and a pH of 7 to 7.5. The activity of the chemicals would then be essentially similar to that determined in our tests using river water. For the treatment of rivers and shorelines of lakes the concentrations of the dichloro- and tetrachloro-compounds that would be used would be those that would kill stickleback or suckers in 12 to 24 hours. The information above, relating to Examples 1 and 12, substantiates improvement in fish culture by the addition of dichloroethyl or dichlorovinyl diethyl phosphate to an aqueous habitat at a concentration in water ranging between 0.1 and 10 mg/l. […] The information above, relating to Example 2, substantiates improvement in fish culture by the addition of tetrachloroethyl diethyl phosphate to an aqueous habitat at a concentration in water ranging between 4 and 80 μg/l.

[3] = in vivo; conditions: steelhead trout
[4] = tested on: spotted sucker; assay: Exploratory bioassay, spotted sucker; assay type: in vivo, Minytrema melanops; conditions: less than 24 h; 15 C; 31 to 38 mm
Description: (§1) Cursory bioassays were made with small numbers of other fishes and a crayfish (Pacifasticus klamathensis) to check on the universal selectivity of the toxicants. The fishes included Arctic grayling (Thymallus arcticus), longnose sucker (C. catastomus), largescale sucker, (C. macrocheilus), and spotted sucker (Minytrema melanops).
A series of five 24-hour biassays was made with the spotted sucker (2 fish per aquarium) at a concentration range of 1 mg/l to 5 mg/l of 2, 2-dichlorovinyl diethyl phosphate. The chemical killed all of the spotted suckers (31 to 38 mm) at 1 mg/l in less than 24 hours at 15 C.

[5] = tested on: brown bullhead catfish; assay: Bioassay, brown bullhead catfish; assay type: in vivo, Ictalurus nebulosus; conditions: for mortality: 96 h, 140-185 mm; for mortality / time in which all bullhead catfish died: artesian well water, 10 C; for time in which all bullhead catfish died: fry 28-40 mm; for selectivity to bullhead catfish: in vivo
Description: Bioassays (10 fish per concentration) were made with brown bullhead catfish fry (28-40 mm) at concentrations of 0, 2, and 4 mg/l of 2, 2-dichlorovinyldiethyl phosphate in artesian well water (load, 0.5 g/l). All the Bullhead catfish died in 12 hours at 2 mg/l and in 6 hours at 4 mg/l of the chemical at 10 C.
A second series of bioassays (10 fish per concentration) was made with larger bullhead catfish (140-185 mm) at 0.6 and 1.0 mg/l concentrations of 2, 2-dichlorovinyl diethyl phosphate in artesian well water (load, 1.0 g/l) at 10 C. In 96 hours 50% mortality occurred at 0.6 mg/l and 100% mortality at 1.0 mg/l.

[6] = tested on: longnose sucker; assay: Exploratory bioassay, longnose sucker; assay type: in vivo, C. catastomus; conditions: less than 24 h; 15 C; 47 to 61 mm
Description: as §1
A series of 24-hour bioassays was made with the longnose sucker (1 fish per aquarium) at a concentration range of 0.1 mg/l to 4.5 mg/l of 2, 2-dichlorovinyl diethyl phosphate. The chemical killed the longnose sucker (47 to 61 mm) at a concentration of 0.2 mg/l and higher in less than 24 hours at 15 C.
Three longnose suckers (about 125 mm) and three Arctic grayling (about 125 mm) were exposed to 10 μg/l of 2, 2, 2, 1-tetrachloroethyl diethyl phosphate. The suckers died between 14 and 22 hours at 13 C. The grayling were not affected in 48-hour biassays.

[7] = Static bioassay, lethal concentration to coho salmon; assay type: in vivo, Oncorhynchus kisutch; conditions: coho salmon, water, 10 C
Description: (§2) Bioassays utilized water from an artesian well at Moscow, Idaho and from the headwaters of the Palouse River, also in Idaho. The chemical characteristics of the artesian water were analyzed as follows: Total hardness 67-120 mg/l; total dissolved solids, 160-175 mg/l; and pH 7.1. The chemistry of the Palouse River water was analyzed as follows: total hardness 17 mg/l; methyl orange alkalinity 26 mg/l; total dissolved solids, 32 mg/l and pH, 7.0.
(§3) Fish were acclimated to test temperatures, usually at 5, 7.5, 10, 15 and 20 degrees Celsius (C), at least 60 hours before exposure to toxicants. For fish and crayfish four water baths regulated the temperature of assay aquaria. Each water bath contained a battery of 20 identical 19-liter clear glass containers or 11.4-liter plastic aquaria lined with disposable polyethylene bags and covered with Plexiglass lids to reduce evaporation. For larger fish and large numbers of fish the bioassays were made in two temperature controlled rooms that contained a series of 700-liter circular fiberglass vats and a series of 76- and 91-liter plastic containers.
(§4) Standard bioassay techniques were used in sorting fish and conducting the tests. Fish were placed in aerated test aquaria overnight to permit fish to recover from stress due to handling and to deprive them of food. The average load varied but most bioassays were conducted with about 1 g of fish per liter of water.
(§5) Aliquots of organophosphates were dissolved in ethanol and dispensed to the aquaria to provide concentrations suitable for obtaining the LC0 and LC50 of desirable fish and the LC50 and LC100 of target fish. Control fish were conditioned in the same manner as the test fish, but no chemical was added to the control vessels during the assays. After the addition of a chemical, observations were made mainly at 3, 6, 12, 24, 48, 96, and 192 h. The weight and fork length of fish were obtained when fishes were sacrificed.
(§6) Delineation bioassays determined primarily the LC50 and LC100 of sucker and stickleback and the LC0 and LC50 of salmonids.
(§7) The statistical LC1, LC50, and LC99 were interpolated and/or extrapolated using probit graph paper to approximate the LC0, LC50, and LC100 when the latter set of values was not closely determined by single concentrations in a series.
(§8) Threespine stickleback, brook stickleback, bridgelip sucker, white sucker, chinook salmon, coho salmon, sockeye salmon, kokanee, Kamloops trout, cutthroat trout, and brook trout were treated with various concentrations of 2, 2, 2, 1-tetrachloroethyl diethyl phosphate and at various temperatures to determine approximate selectivity and safety indices. The approximate LC50 and LC100 of the target fishes (threespine and brook sticklebacks and bridgelip and white suckers) are tabulated in Table 5. The 96-hour selectivity and safety indices of selected species of salmonids versus the threespine stickleback are tabulated in Table 7.

[8] = tested on: coho salmon; assay: as above; assay type: in vivo, Oncorhynchus kisutch; conditions: 10 C
Description: as §2, §3, §4, §5, §6, §7, §8

Row | SMILES | deactivation by 1 equivalent weight of permanganate ([1]; 15 C) | effect of potassium permanganate on mortality ([1]; excessive concentrations of 2 Cl) | recommended safe and effective concentration ([2]; 10 C) [mg/L] | recommended safe and effective concentration ([2]; 15 C) [mg/L] | concentrations for control (upper: greater than) ([2]; Kamloops, 10 C, 24 h or less, river water) | LC50 at 96 h [3] [µg/mL] | LC50 at 192 h [3] [µg/mL] | concentration that killed all of the spotted suckers [4] [mg/L] | mortality ([5]; 0.6 mg/l) [%] | mortality ([5]; 1.0 mg/l) [%] | time in which all bullhead catfish died ([5]; 2 mg/l) [h] | time in which all bullhead catfish died ([5]; 4 mg/l) [h] | selectivity to bullhead catfish [5] | selectivity to bullhead catfish ([5]; listed as dichloro-compound) | concentration that killed longnose sucker [6] [mg/L] | LC50 at 96 h ([7]; 96 h) [µg/mL] | LC50 at 192 h ([7]; 192 h) [µg/mL] | LC0 ([8]; 48 h) [µg/L] | LC0 ([8]; 96 h) [µg/L] | LC0 ([8]; 192 h) [µg/L]
1 | CCOP(=O)(OC=C(Cl)Cl)OCC [2,2-dichlorovinyl diethyl phosphate] | about 25% | delayed mortality | 5 | 3 | 4-4 mg/l | 7.1 | 2.8 | 1 | 50 | 100 | 12 | 6 | specific for the carp and bullhead catfish | slightly more selective to bullhead than to stickleback | ≥ 0.2 |  |  |  |  | 
2 | CCOP(=O)(OCC)OC(Cl)C(Cl)(Cl)Cl (centres unmarked) [2,2,2,1-tetrachloroethyl diethyl phosphate] |  |  |  |  |  |  |  |  |  |  |  |  |  |  |  | 0.023 | 0.015 | 30 | 14 | 8

— patent US4395969A (priority 1981, dated 1983)
